{"source": "patent US8969524B2", "about": "“FVIII peptides for immune tolerance induction and immunodiagnostics” (Baxter International Inc., priority 2010, dated 2015)", "data": [{"test_system": "FVIII-specific T cell hybridomas (peptides presented by HLA-DRB1*1501)", "test": "Peptide specificity of FVIII-specific T cell hybridomas (IL-2 release)", "format": "cell-based, mouse", "settings": "during Factor VIII replacement therapy or connected with acquired hemophilia", "from_the_text": "To better mimic the human MHC class II molecule for identifying FVIII peptides, a mouse model was developed for hemophilia A with a chimeric MHC class II molecule carrying a human HLA-DRB1*1501 specific binding site. This mouse was backcrossed to a mouse carrying a complete knock out of all murine MHC class II genes (Reipert et al., J. Thromb. Haemost. 7 Suppl. 1:92-97 (2009)). In this new transgenic mouse model, all CD4^+ T cell responses are driven by the human MHC class II molecule. This mouse model was used to identify FVIII peptides presented by HLA-DRB1*1501 that drive anti-FVIII immune responses in these mice.\nHemophilic HLA-DRB15 E17 mice: HLA-DRB1*1501^+/− E17^−/− mice as described in Reipert et al., J. Thromb. Haemost. 7 Suppl. 1:92-97 (2009). Mice were all male and aged 8 to 12 weeks at the beginning of the experiment.\nImmunization with human recombinant FVIII: HLA-DRB1*1501^+/− E17^−/− mice received between 4 and 8 intravenous or subcutaneous doses of 0.2 μg or 1 μg human rFVIII at weekly intervals. rFVIII was diluted in the original formulation buffer or Dulbecco phosphate buffered saline containing calcium and magnesium (DPBS; Sigma Aldrich, St. Louis, Mo., USA).\nCell preparation: Spleens were obtained 3 to 7 days after the last immunization with rFVIII. Spleen cells were minced and passed through a 70 μm cell strainer (Becton Dickinson, Franklin Lakes, N.J.). Single cells were collected in culture medium: RPMI 1640 medium (Gibco, Invitrogen, Life Technologies, Carlsbad, Calif.) supplemented with 10% preselected fetal calf serum (FCS; Hyclone, Logan, Utah), 2 mM L-glutamine, 100 U/mL penicillin/streptomycin (both from Gibco), and 5×10^−5 M mercaptoethanol (Sigma-Aldrich). Erythrocytes were lysed using hypotonic buffer (pH 7.2) composed of 0.15 M ammonium chloride, 10 mM potassium bicarbonate (both from Merck, Darmstadt, Germany) and 0.1 mM ethylene-diaminetetraacetic acid (Sigma-Aldrich). Cells were washed and counted using a Coulter Counter Z1. […]", "values": [{"sequence": "AWPKMHTVNGYVNRSLPGLIG (listed as Homo sapiens) [FVIII^246-266]", "involvement in the immune response mounted against FVIII protein": "involved in the immune response"}, {"sequence": "QANRSPLPIAKVSSFPSIRPIYLT (listed as Homo sapiens) [FVIII^1401-1424]", "involvement in the immune response mounted against FVIII protein": "involved in the immune response"}, {"sequence": "TVVITLKNMASHPVSLHAVGV (listed as Homo sapiens) [FVIII^102-122]", "involvement in the immune response mounted against FVIII protein": "involved in the immune response"}]}]}
